Earlier results in patent publication US20050163829A1, “Device and patch for controlled release of vanillin” (priority 2001, published 2005).

What was measured:
[1] = test system: nicotinic acetylcholine receptor (nACh)
[2] = test system: glutamate receptors (NMDA)

COc1cc(C=O)ccc1O [Vanillin, 3 methoxy-4 hydroxybenzaldehyde]
effect on the GABA receptor (GABA receptor): inhibited
effect on the nicotinic acetylcholine receptor (nACh) [1]: inhibited
effect on the glutamate receptor NMDA [2]: inhibitory effect
effect on the glutamate receptor KA (glutamate receptors (KA)): inhibitory effect

CCCCOC(C)=O [butyl acetate]
effect on the GABA receptor (GABA receptor): stimulate

CC(C)=CCC/C(C)=C/CO [geraniol]
effect on the GABA receptor (GABA receptor): stimulate
